Measurements as given in PMC6555543 (PLoS Pathogens, 2019).

Tests used:
[1] = target: T1, RVFV CBD (CBD13, RVFV L protein cap-binding domain) (Rift Valley fever virus, UniProt A2SZS3); assay: biochemical
[2] = target: T1, RVFV CBD (CBD13, RVFV L protein cap-binding domain); details: 1-10 mM ligand, 15 μM protein, 20 mM Na-phosphate pH 6.5, 100 mM NaCl
[3] = target: T1, RVFV CBD (CBD13, RVFV L protein cap-binding domain); details: 25°C, 50 mM Na-phosphate pH 6.5, 150 mM NaCl, 10% glycerol; 9.8 mM GTP in syringe, 194 μM protein

T1 sequence (A2SZS3 1706-1822 limits assumed): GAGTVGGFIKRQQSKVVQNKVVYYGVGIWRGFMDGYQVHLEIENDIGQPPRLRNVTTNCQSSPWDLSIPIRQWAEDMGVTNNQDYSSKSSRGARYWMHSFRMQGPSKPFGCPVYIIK

C[n+]1cn([C@@H]2O[C@H](COP(=O)(O)OP(=O)(O)OP(=O)(O)O)[C@@H](O)[C@H]2O)c2nc(N)[nH]c(=O)c21 [m^7GTP]
Kd [1]: ~737 µM

Nc1ncnc2c1ncn2[C@@H]1O[C@H](COP(=O)(O)OP(=O)(O)OP(=O)(O)O)[C@@H](O)[C@H]1O [ATP]
ΔTm [2]: no or even negative effects on protein stability after addition of GTP or ATP

Nc1nc2c(ncn2[C@@H]2O[C@H](COP(=O)(O)OP(=O)(O)OP(=O)(O)O)[C@@H](O)[C@H]2O)c(=O)[nH]1 [GTP]
KD [3]: For GTP the KD is too high to be determined by ITC
